Assay results as given in US8618080B2, “Immunomodulatory compounds and treatment of diseases related to an overproduction of inflammatory cytokines” (OM Pharma, priority 2006, dated 2013).

Key:
[1] = system: human CD4+ T cells; test: Cytokine production and proliferation of naïve CD4+ T cells stimulated with anti-CD3 and anti-CD28; format: cell-based; conditions: 0.02-20 μg/ml
Experimental: A series of four compounds of the present invention (OM-197-MP-AC, OM-197-MC-HD, OM-294-BA-MP, OM-197-MP-HD) were tested directly as summarized below:
Naïve CD4^+ T cells were magnetically sorted from healthy blood donor (buffy coat). The cells were stimulated in the presence or not of graded doses of triacyl derivatives (0.02; 0.2; 2 and 20 μg/ml) using plate-bound anti-CD3 (5 μg/ml) and soluble anti-CD28 (1 μg/ml). After 6 days, cytokine levels (IFN-γ and IL-13) were tested in the culture supernatants using ELISA.
FIGS. 3A-3D: Effect of increasing doses of the four compounds tested (OM-197-MP-AC, n=5; OM-197-MC-HD, n=5; OM-294-BA-MP, n=7; OM-197-MP-HD, n=3) on IFN-γ and IL-13 production of human CD4^+ T cells following a polyclonal activation. Results are expressed as the median (±p25/p75) of n independent experiments and show the percentage (%) proliferation or cytokine production of treated cells versus untreated cells (considered as 100%, see dotted line). The statistical analysis was performed using a nonparametric unpaired Mann-Whitney t test (2-tailed).

[2] = system: LACK-sensitised and -challenged BALB/c ByJ mice; test: LACK-induced allergic asthma model, other routes of administration; format: in vivo
Experimental: 43 females BALB/c ByJ mice 6-week old were purchased from the Centre d'Elevage Janvier (CERJ, Le Genest-St-Isle, France). All the mice were sensitised by 2 i.p. injections of 10 μg LACK protein precipitated in 2 mg of Alum (PerBio Science France SAS, Brebières, France) at days 1 and 8 (Julia et al., 2002).
OM-197-MP-AC was given from day 0 to day 12 as described below. All the mice were challenged from day 16 to day 20 with either a solution of LACK (0.15%) or with PBS as indicated below.
Experimental groups were the following: • Group A: untreated, LACK-sensitised and PBS-challenged mice (3 mice) • Group B: untreated LACK-sensitised and -challenged mice (7 mice) • Group C: i.p. OM-197-MP-AC-treated, LACK-sensitised and -challenged mice (5 mice) • Group D: i.g. OM-197-MP-AC-treated, LACK-sensitised and -challenged mice (7 mice) • Group E: s.c. OM-197-MP-AC-treated, LACK-sensitised and -challenged mice (7 mice). • Group F: i.n. OM-197-MP-AC-treated, LACK-sensitised and -challenged mice (7 mice) • Group G: aerosols OM-197-MP-AC-treated, LACK-sensitised and -challenged mice (7 mice)
Mice of groups C, D, E, and G were treated on days: 0, 2, 3, 4, 7, 9, 10, 11, whereas mice of group F (intranasal route) were only treated on days 0, 4, 7, and 11.
Mice of groups C and E were treated i.p. and s.c. respectively with 1 mg/Kg (20 μg per mouse) of OM-197-MP-AC.
Mice of group D were treated intragastrically with 50 mg/Kg (1 mg per mouse) of OM-197-MP-AC.
Mice of group F were treated i.n. with 20[…]μg of OM-197-MP-AC in a volume of 20 μl (OM-197-MP-AC at 2 mg/ml, 10[…]μl/nostril.)
Mice of group G received aerosols of a solution of OM-197-MP-AC at 0.2% (2 mg/ml) for 10 minutes.
All the mice were bled by heart puncture 2 days after the last aerosol. Total IgE were quantified by ELISA using rat EM-95 anti-IgE mAbs as coating antibody and rat anti-IgE mAbs coupled to biotin as second antibody as described elsewhere (Julia et al., 2002).
Individual mice were bled and a canula was inserted into their trachea. Lungs were washed 3 times with 1 ml of warmed PBS. Cells were washed with PBS, resuspended in 300 μl, and counted using a Burker-Türk chamber. For differential BAL cell counts, cytospin preparations were made and stained with Wright/Giemsa.

[3] = Pyrogenicity in the rabbit; format: in vivo, New Zealand white rabbits; conditions: i.v., temperature increase
Experimental: 3 New Zealand white rabbits/group were injected i.v. with either OM-197-MP-AC or OM-294-DP at different doses (according to the European Pharmacopoeia 2001, Method 2.6.8).
Animals: Readout: temperature increase

For `CCCCCCCCCCCC(=O)O[C@H](CCCCCCCCCCC)CC(=O)N[C@@H](CCOP(=O)(O)O)C(=O)NCCC[C@H](COC(=O)CCCCCN)NC(=O)C[C@H](O)CCCCCCCCCCC` [OM-197-MP-AC, (3S, 9R)-3-[(R)-3-dodecanoyloxytetradecanoylamino]-4-oxo-5-aza-9-[(R)-3-hydroxytetradecanoylamino]-decan-1, 10-diol 1-dihydrogenophosphate 10-(6-aminohexanoate)], the T cell proliferation [1] was “unaffected”, the “IFN-γ production by CD4+ T cells” value ([1]; 6 days, ELISA) was “unaffected” and the “IL-13 production by CD4+ T cells” value ([1]; 6 days, ELISA) was “reduced”. For the same molecule, the “Eosinophils in BAL” value ([2]; aerosols of 0.2% solution, 10 minutes) was “same tendency as i.n. treated animals”, the “BAL cell contents versus untreated mice” value ([2]; i.g. 50 mg/Kg, unformulated) was “did not yield differences” and the “Eosinophil frequencies and numbers in BAL” value ([2]; i.n. 20 μg per mouse) was “reduced by half”. For the same molecule, the “Total serum IgE” value ([2]; i.n. 20 μg per mouse) was “reduced titers”, the “Eosinophils in BAL” value ([2]; i.p. 1 mg/Kg) was “both reduced percentage and reduced numbers” and the “Total IgE” value ([2]; i.p. 1 mg/Kg) was “reduced amounts”. For the same molecule, the “BAL cell contents versus untreated mice” value ([2]; s.c. 1 mg/Kg) was “did not yield differences” and the Pyrogenic threshold [3] was greater than 0.9 mg/kg.
